# From paper PMC6158167 (Nature Communications, 2018)
# Columns and labels:
# ShHTL3 [1] = assay: SL hydrolysis assay (HPLC), ShHTL3; format: biochemical, Striga hermonthica; conditions: 3.2 μM SL, 1.6 μM enzyme, 30 min, 30 °C
# Method: (§1) Next, 50 μL of 1 M HCl was added to each reaction solution, and the reaction solutions were extracted 3 times with 300 μL of ethyl acetate. The ethyl acetate layers were combined and dried in vacuo and were then dissolved in 50 μL of methanol. For each layer, 5 μL was applied to the reverse-phase HPLC (Shimadzu LC-2030C). The analytical column was a CAPCELL CORE C18 (Φ 2.1 × 100 mm, Shiseido). The analytes were eluted under gradient conditions at a flow rate of 0.20 mL min^−1 with a linear ramp of methanol to 90% methanol at 19 min, which was maintained for 6 min before resetting to the original conditions. […] The percentage of hydrolyzed SL was calculated and used for statistical analyses. One-tailed unpaired Student’s t-tests were used for comparison between buffer samples and enzyme samples.
# ShHTL3 [2] = test system: ShHTL3; design: method as in PMID 27507097; conditions: cited from earlier work
# AtD14 = biological target: AtD14; design: method as in earlier work; conditions: read-out: Kd of rac-GR24 binding to AtD14; quoted in reviewer comment; cited from earlier work
# ShHTL7 T190F/C194F [3] = biological target: ShHTL7 T190F/C194F (Striga hermonthica, UniProt A0A0M3PNA2, C194F/T190F); assay: YLG competition assay, ShHTL7 double mutation; format: biochemical
# Method: (§2) The YLG assays were conducted as previously described[28] with minor modifications. Ten microliters of 0.1 mg mL^−1 ShHTL7 protein in a reaction buffer containing 20 mM HEPES, pH 7.0, 150 mM NaCl and 80 μL of reaction buffer were mixed in a 96-well black plate (Grenier). Ten microliters of 10 μM YLG was added to the solution and incubated at 25 °C for 1 h prior to measurement. The fluorescence intensity was measured using a SpectraMax® iD5 Multi-Mode Microplate Reader (Molecular Devices). Measurements were performed at room temperature under a 480 nm excitation wavelength, a 530 nm emission wavelength, a manual PMT of 500, and a read height of 1.00 mm. The fluorescence can be detected if YLG is hydrolyzed. The RFU (relative fluorescence unit) was calculated by subtracting the fluorescence of the buffer (without protein) and then dividing by the fluorescence of wild-type ShHTL7. The experiment was repeated 6 times independently. […]
# (§3) in a previous study6, the enzymes were incubated with YLG at the indicated concentrations. The RFU (relative fluorescence units) was calculated by dividing the fluorescence of hydrolysis at 10 μM YLG by wild type (WT) ShHTL7 after subtracting the fluorescence of the buffer. The Km values were calculated from a Michaelis-Menten plot using GraphPad Prism software and are shown in the plots. (d) Competition assays with synthetic SL rac-GR24. WT and ShHTL7 protein […]
# (§4) The inhibition constant Ki was calculated according to the Cheng-Prusoff equation7. Kirac-GR24 values were 0.07 ± 0.01 μM for WT; 0.15 ± 0.04 μM for the T190F/C194F double mutation; and 11.85 ± 3.43 μM for the L124F/T190F/C194F triple mutation as shown in the plots. The experiment was repeated 4 times independently, and each replicate is represented by a black dot.
# (§5) The mean values are fitted, and the error bars represent the standard deviation (S.D.) of three replicates (means ± S.D., n=3).
# ShHTL7 T190F/C194F [4] = assay: YLG competition assay, ShHTL7 double mutation; format: biochemical, Striga hermonthica; conditions: from Ki in YLG competition assays
# Method: as §2, §3, §4, §5
# ShMAX2 and ShD14 = assay: In vitro pull-down ShD14-ShMAX2; format: binding, Striga hermonthica; conditions: 50 μM ligand, CBB staining
# Method: (§6) Ni-NTA pull-down assays were performed with purified ShMAX2 or AtMAX2 as the bait and […]14, or GST-AtD14 as the prey. The molecular weight of the HTL/D14 proteins is nearly the same as that of ASK1; therefore, the HTL/D14 proteins were fused to GST, increasing their molecular weight for detection on SDS-PAGE gels. […] The protein complexes were then eluted with 100 μL of elution buffer containing 50 mM Bis-Tris, pH 6.8, 500 mM NaCl, and 500 mM imidazole and subjected to SDS-PAGE analysis.
# ShMAX2 and ShHTL4 = assay: In vitro pull-down ShHTL4-ShMAX2; format: binding, Striga hermonthica; conditions: 50 μM ligand, CBB staining
# Method: as §6
# ShHTL1 [5] = biological target: T1, ShHTL1 (Striga hermonthica, UniProt A0A0M4AV81); assay: SL hydrolysis assay (HPLC), ShHTL1; format: biochemical; conditions: 3.2 μM SL, 1.6 μM enzyme, 30 min, 30 °C
# Method: as §1
# ShHTL4 = assay: SL hydrolysis assay (HPLC), ShHTL4; format: biochemical, Striga hermonthica; conditions: 3.2 μM SL, 1.6 μM enzyme, 30 min, 30 °C
# Method: as §1
# ShHTL7 L124F/T190F/C194F = ShHTL7 L124F/T190F/C194F (Striga hermonthica, UniProt A0A0M3PNA2, C194F/L124F/T190F); assay: YLG competition assay, ShHTL7 triple mutation; format: biochemical
# Method: as §2, with “ShHTL7.” for “ShHTL7. The experiment was repeated 6 times independently.”
# as §3, with “plots.” for “plots. (d) Competition assays with synthetic SL rac-GR24. WT and ShHTL7 protein”
# (§7) The inhibition constant Ki was calculated according to the Cheng-Prusoff equation7. […]
# ShD14–ShMAX2 interaction = assay: Y2H assay ShD14-ShMAX2; format: cell-based, Striga hermonthica; conditions: 5 μM ligand
# Source text: (§8) Full-length sequences of ShD14, ShHTL1, ShHTL3, ShHTL4, ShHTL7, and AtHTL were cloned into the pGBKT7 vector as bait (Clontech), and the coding regions of ShMAX2 and AtMAX2 were cloned into the pGADT7 vector as prey (Clontech). MAX2 was supposed to be unstable without ASK1. Therefore, AtASK1 was cloned into the N terminus of ShMAX2 and AtMAX2 with a 16-residue linker for co-expression. The bait and prey plasmids were co-transformed into the yeast (Saccharomyces cerevisiae) strain Y2HGold (Clontech) by the lithium acetate-mediated method. The presence of both plasmids was confirmed by growth on SD/-Leu/-Trp (-LT) plates. […] The plates were incubated for 5 days at 30 °C.
# AtHTL = biological target: T2, AtHTL (Arabidopsis thaliana, UniProt Q9SZU7); conditions: cited from earlier work
# T2 sequence (Q9SZU7 1-270): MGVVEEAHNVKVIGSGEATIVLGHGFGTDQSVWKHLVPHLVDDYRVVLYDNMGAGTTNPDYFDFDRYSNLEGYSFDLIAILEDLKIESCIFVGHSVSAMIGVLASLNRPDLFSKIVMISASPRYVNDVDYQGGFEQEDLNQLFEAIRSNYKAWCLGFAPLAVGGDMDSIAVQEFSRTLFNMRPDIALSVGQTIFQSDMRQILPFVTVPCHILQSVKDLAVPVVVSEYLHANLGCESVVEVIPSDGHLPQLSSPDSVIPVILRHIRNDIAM
# ShHTL1 [6] = biological target: T1, ShHTL1; assay: ITC binding to ShHTL1; conditions: 750 μM ShHTL1 into 100 μM rac-GR24, 20 °C
# Method: The binding assays were performed using a MicroCal iTC200 isothermal titration calorimeter (GE Healthcare). Prior to the ITC experiments, concentrated ShD14, ShHTL1, ShHTL4, and ShHTL7 were exchanged into a buffer consisting of 20 mM HEPES (pH 8.0) and 150 mM NaCl to remove dithiothreitol and were then adjusted to a final concentration of 150 μM. The sample cell was filled with protein solution (204 μL). Nineteen consecutive 2.0-μL aliquots of 3 mM KAR1 (3-methyl-2H-furo [2,3-c] pyran-2-one) were injected into a prepared protein solution at 150 s intervals at 20 °C. The first injection volume was 0.4 μL, and the observed thermal peak was excluded from the data analysis. A negative control was obtained by titrating 3 mM KAR1 into the buffer (20 mM HEPES, pH 8.0, 150 mM NaCl) in the same manner. Data fitting was performed in “one set of sites” mode, and KD values were calculated using Origin software provided by MicroCal.
# Binding analyses of ShHTLs and ShD14 with KAR1. The ITC assays were performed by adding 3 mM KAR1 to 150 μM ShHTL1 (a), ShHTL4 (b), ShHTL7
# (c), ShD14 (d) and AtHTL (e).
# ShHTL1 and AtHTL were fitted using the MicroCal origin software with the “one binding site” model.
# ShD14 [7] = assay: SL hydrolysis assay (HPLC), ShD14; format: biochemical, Striga hermonthica; conditions: 3.2 μM SL, 1.6 μM enzyme, 30 min, 30 °C
# Method: as §1
# ShHTL7 [8] = biological target: T3, ShHTL7 (Striga hermonthica, UniProt A0A0M3PNA2); assay: YLG competition assay, WT ShHTL7; format: biochemical
# T3 sequence (A0A0M3PNA2 1-271): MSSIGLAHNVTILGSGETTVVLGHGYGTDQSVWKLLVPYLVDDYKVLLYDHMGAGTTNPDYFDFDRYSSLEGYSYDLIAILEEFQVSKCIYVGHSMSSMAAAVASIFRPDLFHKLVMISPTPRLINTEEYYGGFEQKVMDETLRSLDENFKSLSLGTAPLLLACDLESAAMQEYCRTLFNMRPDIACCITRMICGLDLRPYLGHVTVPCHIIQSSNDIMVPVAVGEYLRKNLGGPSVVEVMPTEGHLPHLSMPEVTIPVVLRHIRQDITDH
# Method: as §2, with “ShHTL7.” for “ShHTL7. The experiment was repeated 6 times independently.”
# as §3, with “plots.” for “plots. (d) Competition assays with synthetic SL rac-GR24. WT and ShHTL7 protein”
# as §7
# [9] = test system: ShHTL7–ShMAX2 interaction; assay: Y2H assay ShHTL7-ShMAX2; format: cell-based, Striga hermonthica; conditions: 5 μM ligand
# Source text: as §8
# ShHTL7 [10] = biological target: T3, ShHTL7; assay: SL hydrolysis assay (HPLC), ShHTL7; format: biochemical; conditions: 3.2 μM SL, 1.6 μM enzyme, 30 min, 30 °C
# Method: as §1
# [11] = biological target: PYR1 in complex with co-receptor TYPE 2C PROTEIN PHOSPHATASE (PP2C); design: method as in PMID 21847091; conditions: cited from earlier work
# […] 1 (PYR1) = biological target: […] 1 (PYR1); design: method as in PMID 21847091; conditions: read-out: KD of PYR1 for ABA; cited from earlier work
# ShD14 [12] = assay: YLG hydrolysis assay, ShD14; format: biochemical, Striga hermonthica; conditions: fluorescence, repeated YLG hydrolysis assays
# Method: The YLG assays were conducted as previously described[28] with minor modifications. […] The fluorescence intensity was measured using a SpectraMax® iD5 Multi-Mode Microplate Reader (Molecular Devices). Measurements were performed at room temperature under a 480 nm excitation wavelength, a 530 nm emission wavelength, a manual PMT of 500, and a read height of 1.00 mm. The fluorescence can be detected if YLG is hydrolyzed. […] The experiment was repeated 6 times independently. page 4: Supplementary Figure 4. YLG hydrolysis assays of OsD14 and ShD14. RFU (relative fluorescence units) was calculated by dividing the fluorescence of OsD14. The fluorescence can be detected under a 490 nm excitation wavelength and a 520 nm emission wavelength if YLG is hydrolyzed. The experiments were repeated 4 (OsD14) or 6 times independently. Columns represent the mean RFU, and the error bars represent the standard deviation (S.D.). Each replicate is indicated by a black circle.
# ShD14 [13] = test system: ShD14; design: method as in PMID 26293962; conditions: cited from earlier work
# T1 sequence (A0A0M4AV81 entry or part of it): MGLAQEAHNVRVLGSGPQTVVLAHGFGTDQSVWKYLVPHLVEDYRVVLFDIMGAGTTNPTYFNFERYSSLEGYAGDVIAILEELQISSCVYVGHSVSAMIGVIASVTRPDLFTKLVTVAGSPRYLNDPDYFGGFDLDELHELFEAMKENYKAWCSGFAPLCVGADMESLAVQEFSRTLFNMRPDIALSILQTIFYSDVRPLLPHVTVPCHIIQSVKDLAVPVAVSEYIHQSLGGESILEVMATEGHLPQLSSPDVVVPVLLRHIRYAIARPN
# Sequence of ShHTL7 T190F/C194F (Striga hermonthica, UniProt A0A0M3PNA2, C194F/T190F) (A0A0M3PNA2 whole entry T190F/C194F): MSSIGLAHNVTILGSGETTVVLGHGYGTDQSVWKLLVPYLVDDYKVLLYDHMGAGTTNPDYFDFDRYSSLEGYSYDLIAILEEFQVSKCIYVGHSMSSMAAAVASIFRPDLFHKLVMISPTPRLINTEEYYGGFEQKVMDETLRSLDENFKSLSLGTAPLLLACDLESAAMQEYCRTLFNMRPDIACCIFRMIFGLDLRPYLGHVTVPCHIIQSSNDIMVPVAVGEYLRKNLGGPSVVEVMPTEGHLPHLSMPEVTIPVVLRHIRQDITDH
# Sequence of ShHTL7 L124F/T190F/C194F (A0A0M3PNA2 whole entry L124F/T190F/C194F): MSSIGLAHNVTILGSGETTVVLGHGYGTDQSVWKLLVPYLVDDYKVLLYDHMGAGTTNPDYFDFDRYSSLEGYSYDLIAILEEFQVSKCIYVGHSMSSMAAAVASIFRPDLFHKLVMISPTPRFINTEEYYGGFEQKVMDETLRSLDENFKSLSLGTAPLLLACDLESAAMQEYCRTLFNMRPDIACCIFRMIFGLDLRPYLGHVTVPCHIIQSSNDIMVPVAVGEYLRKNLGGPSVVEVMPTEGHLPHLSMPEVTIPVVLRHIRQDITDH
compound,measurement,setting,value
CC1=CC(O/C=C2/C(=O)OC3c4ccccc4CC23)OC1=O (racemic) [rac-GR24],hydrolytic activity of ShHTL3 toward SL,ShHTL3 [1],no hydrolytic activity
same,binding of rac-GR24 to ShHTL3,ShHTL3 [2],can bind to KAR1 but not rac-GR24
same,Kd,AtD14,0.3 µM
same,IC50,ShHTL7 T190F/C194F [3],0.21 ± 0.05 µM
same,Ki,ShHTL7 T190F/C194F [3],0.15 ± 0.04 µM
same,"decrease in rac-GR24 binding affinity, T190F/C194F vs ShHTL7",ShHTL7 T190F/C194F [4],twofold decrease
same,ligand-dependent ShMAX2-ShD14 interaction,ShMAX2 and ShD14,direct interaction was detected between ShMAX2 and ShD14 in a rac-GR24-dependent manner
same,ligand-dependent ShMAX2-ShHTL4 interaction,ShMAX2 and ShHTL4,able to interact with ShHTL4 of the divergent clade in the presence of rac-GR24
same,hydrolytic activity of ShHTL1 toward SL,ShHTL1 [5],no hydrolytic activity
same,hydrolytic activity of ShHTL4 toward SL,ShHTL4,able to hydrolyze
same,IC50,ShHTL7 L124F/T190F/C194F,13.9 ± 3.41 µM
same,Ki,ShHTL7 L124F/T190F/C194F,11.8 ± 3.43 µM
same,ligand-induced ShD14-ShMAX2 interaction,ShD14–ShMAX2 interaction,rac-GR24-dependent ShD14–ShMAX2 interaction was also observed
same,hydrolysis of rac-GR24 by AtHTL,AtHTL,able to hydrolyze rac-GR24 to some extent
same,binding of rac-GR24 to ShHTL1,ShHTL1 [6],no detectable binding
same,hydrolytic activity of ShD14 toward SL,ShD14 [7],able to hydrolyze
same,IC50,ShHTL7 [8],0.17 ± 0.01 µM
same,Ki,ShHTL7 [8],0.07 ± 0.01 µM
same,ligand-induced ShHTL7-ShMAX2 interaction,[9],triggered the interaction of ShHTL7 with ShMAX2
same,hydrolytic activity of ShHTL7 toward SL,ShHTL7 [10],able to hydrolyze
"CC1=CC(OC=C2C(=O)OC3C4=C(CCCC4(C)C)CC23)OC1=O (stereo not drawn) [5DS, 5-deoxystrigol]",hydrolytic activity of ShHTL1 toward SL,ShHTL1 [5],weak 5DS hydrolytic activity
same,hydrolytic activity of ShHTL4 toward SL,ShHTL4,able to hydrolyze
same,hydrolytic activity of ShD14 toward SL,ShD14 [7],able to hydrolyze
same,hydrolytic activity of ShHTL7 toward SL,ShHTL7 [10],able to hydrolyze
"CC1=CC(=O)CC(C)(C)[C@@]1(O)/C=C/C(C)=C\C(=O)O [ABA, abscisic acid]","binding affinities for ABA, PYR1-PP2C complex",[11],nanomolar range
same,Kd,[…] 1 (PYR1),97 µM
CC1=C[C@H](O/C=C2/C(=O)O[C@@H]3c4ccccc4C[C@H]23)OC1=O [GR24^ent−5DS],hydrolysis of GR24^ent−5DS by AtHTL,AtHTL,able to hydrolyze GR24^ent−5DS
"CCOC(=O)c1ccccc1-c1c2ccc(=O)cc-2oc2cc(OC3C=C(C)C(=O)O3)ccc12 (stereo not drawn) [YLG, Yoshimulactone Green]",hydrolysis of YLG by ShD14,ShD14 [12],not YLG
same,"hydrolytic activity of ShD14 toward YLG, previous study",ShD14 [13],no hydrolytic activity toward YLG
"CCOC(=O)c1ccccc1-c1c2ccc(=O)cc-2oc2cc(OC3C=CC(=O)O3)ccc12 (stereo not drawn) [dYLG, desmethyl-YLG]",hydrolysis of dYLG by AtHTL,AtHTL,hydrolyze the synthesized desmethyl-YLG (dYLG)
